From article PMC7215599, “Synthesis, Antitumor Evaluation, Molecular Modeling and Quantitative Structure–Activity Relationship (QSAR) of Novel 2-[(4-Amino-6-N-substituted-1,3,5-triazin-2-yl)methylthio]-4-chloro-5-methyl-N-(1H-benzo[d]imidazol-2(3H)-ylidene)Benzenesulfonamides” (International Journal of Molecular Sciences, 2020) come the findings set out here.

Where only a bound is given, the exact number is not on record here.

In assay [1] the test system is MCF-7 (breast cancer) cell line. Nature of the assay: MTT cell viability assay, MCF-7. Format: cell-based, human. The settings on record: for IC50: MTT, 72 h, 1-100 µM, mean ± SD. Here is the method:
(§1) Compounds 6–49 were evaluated in vitro for their effects on the viability of the three human cancer cell lines: HCT-116 (colon cancer), MCF-7 (breast cancer) and HeLa (cervical cancer) as well as the non-cancerous keratinocyte cell line (HaCaT). The concentration required for 50% inhibition of cell viability IC50 was calculated and compared with the reference drug cisplatin, the results are shown in Table 1.
(§2) Cell lines: colon cancer (HCT-116), breast cancer (MCF-7), cervical cancer (HeLa), the human keratinocyte cell line (HaCaT); NT—not tested; IC50 was measured at concentrations 1, 10, 25, 50, and 100 µM. IC50 values are expressed as the mean ± SD of at last three independent experiments.
(§3) All chemicals, if not stated otherwise, were obtained from Sigma–Aldrich (St. Louis, MO, USA). The HCT-116 cell lines was purchased from ATCC (ATCC-No: CCL-247), while the MCF-7, HeLa and HaCaT cell lines were purchased from Cell Lines Services (Eppelheim, Germany). Cells were cultured in Dulbecco’s modified Eagle’s medium (DMEM) supplemented with 10% fetal bovine serum, 2 mM glutamine, 100 units/mL penicillin, and 100 µg/mL streptomycin. Cultures were maintained in a humidified atmosphere with 5% carbon dioxide at 37 °C in an incubator (Heraceus, HeraCell).
(§4) Cell viability was examined using the MTT (3-(4,5-dimethylthiazol-2-yl)-2,5-diphenyltetrazolium bromide) assay. Cells were seeded in 96-well plates at a density of 5 × 10^3 cells/well and treated for 72 h with the tested compounds in the concentration range of 1–100 µM (1, 10, 25, 50 and 100 µM). Then, MTT (0.5 mg/mL) was added to the medium and cells were further incubated for 2 h at 37 °C. In the next stage, cells were lysed with DMSO and the absorbance of the formazan solution was measured at 550 nm with a plate reader (1420 multilabel counter, Victor, Jügesheim, Germany). The experiment was performed in triplicate. Values are expressed as the mean ± SD of at least three independent experiments. Cisplatin was used as a positive control.
In general terms: Tetrazolium dyes change colour on reduction, which living cells bring about.

Assay [2] concerns HaCaT (non-cancerous keratinocyte cell line). Nature of the assay: MTT cell viability assay, HaCaT. The class given is cell-based. Particulars: Homo sapiens, 72 h, 1-100 µM, mean ± SD, non-cancerous cells. Here is the method:
as §1, §2, §3, §4

The subject of assay [3] is HCT-116, MCF-7 and HeLa cell lines. Nature of the assay: MTT cell viability assay, all tested cancer cell lines taken together. The class given is cell-based. Particulars: Homo sapiens; range over HCT-116, MCF-7 and HeLa; read-out: IC50 toward all of the tested cell lines (range over the lines). Here is the method: as §1, §2, §3, §4
The subject of assay [4] is HeLa (cervical cancer) cell line. Nature of the assay: MTT cell viability assay, HeLa. Format: cell-based, human. Particulars: 72 h, MTT, 1-100 µM, mean ± SD. Here is the method: as §1, §2, §3, §4
The test system of assay [5] is HCT-116 (colon cancer) cell line. Nature of the assay: MTT cell viability assay, HCT-116. Format: cell-based, human. The settings on record: for IC50: MTT, 72 h, 1-100 µM, mean ± SD. Here is the method:
as §1, §2, §3, §4

For orientation: IC50 means the concentration at which inhibition is half-maximal. Take `Cc1cc(S(=O)(=O)N=c2[nH]c3ccccc3[nH]2)c(SCc2nc(N)nc(N3CCc4ccccc43)n2)cc1Cl` [Compound 9, 2-{[4-Amino-6-(indolin-1-yl)-1,3,5-triazin-2-yl]metylthio}-N-(1H-benzo[d]imidazol-2(3H)-ylidene)-4-chloro-5-methylbenzenesulfonamide]: the 50% inhibitory concentration (IC50) is 20 ± 1 µM in assay [1] (Homo sapiens, MCF7, 72 h); 42 ± 2 µM in assay [2]; 17 to 30 µM in assay [3]; 23 ± 1 µM in assay [4] (Homo sapiens, HeLa); 25 ± 1 µM in assay [5] (Homo sapiens, HCT-116, 72 h).

`Cc1cc(S(=O)(=O)N=c2[nH]c3ccccc3[nH]2)c(SCc2nc(N)nc(N3CCN(c4ccc(Cl)cc4)CC3)n2)cc1Cl` [Compound 23, 2-[{4-Amino-6-[4-(4-chlorophenyl)piperazin-1-yl]-1,3,5-triazin-2-yl}methylthio]-N-(1H-benzo[d]imidazol-2(3H)-ylidene)-4-chloro-5-methylbenzenesulfonamide]: the half-maximal inhibitory concentration (IC50) in assay [1] (Homo sapiens, MCF7, 72 h) is 17 ± 0.5 µM; in assay [2], 35 ± 1 µM; in assay [3], 7 to 19 µM; in assay [4] (Homo sapiens, HeLa), 17 ± 1 µM; in assay [5] (Homo sapiens, HCT-116, 72 h) it was 16 ± 0.5 µM.

Turning to `Cc1cc(S(=O)(=O)N=c2[nH]c3ccc(Cl)cc3[nH]2)c(SCc2nc(N)nc(N3CCN(c4ccc(F)cc4)CC3)n2)cc1Cl` [Compound 46, 2-[{4-Amino-6-[4-(4-fluorophenyl)piperazin-1-yl]-1,3,5-triazin-2-yl}metylthio]-4-chloro-N-(5-chloro-1H-benzo[d]imidazol-2(3H)-ylidene)-5-methylbenzenesulfonamide], the IC50 was 17 to 19 µM in assay [1] (Homo sapiens, MCF7, 72 h); 15 ± 1 µM in assay [1]; 28 ± 1 µM in assay [2]; 7 to 19 µM in assay [3]; 11 to 18 µM in assay [4] (Homo sapiens, HeLa); 18 ± 1 µM in assay [4]. Moreover, the IC50 in assay [5] (Homo sapiens, HCT-116, 72 h) is 7 to 11 µM; in assay [5] it was 7 ± 0.1 µM. In addition, the “selectivity ratio HaCaT/MCF-7” value in assay [1] (ratio of IC50 values) worked out at 2. Also, the “selectivity ratio HaCaT/HCT-116” value in assay [5] (ratio of IC50 values) is 4.

For `Cc1cc(S(=O)(=O)N=c2[nH]c3ccccc3[nH]2)c(SCc2nc(N)nc(N3CCN(S(=O)(=O)c4ccccc4)CC3)n2)cc1Cl` [Compound 32, 2-[{4-Amino-6-[4-(phenylsulfonyl)piperazin-1-yl]-1,3,5-triazin-2-yl}methylthio]-N-(1H-benzo[d]imidazol-2(3H)-ylidene)-4-chloro-5-methylbenzenesulfonamide], the IC50 in assay [1] (Homo sapiens, MCF7, 72 h) is > 100 µM; in assay [1], 137 ± 3 µM; in assay [3], 137 to 280 µM.

As for `Cc1cc(S(=O)(=O)N=c2[nH]c3ccccc3[nH]2)c(SCc2nc(N)nc(N3CCN(C)CC3)n2)cc1Cl` [Compound 18, 2-{[4-Amino-6-(4-methylpiperazin-1-yl)-1,3,5-triazin-2-yl]metylthio}-N-(1H-benzo[d]imidazol-2(3H)-ylidene)-4-chloro-5-methylbenzenesulfonamide], the IC50 in assay [1] (Homo sapiens, MCF7, 72 h) was > 100 µM; in assay [1], 82 ± 3 µM; in assay [2], 84 ± 3 µM; in assay [3] it was 42 to 82 µM; in assay [4] (Homo sapiens, HeLa), 61 ± 2 µM; in assay [5] (Homo sapiens, HCT-116, 72 h), 42 ± 2 µM.

As for `Cc1cc(S(=O)(=O)N=c2[nH]c3ccccc3[nH]2)c(SCc2nc(N)nc(N3CCN(c4ccc(F)cc4)CC3)n2)cc1Cl` [Compound 20, 2-[{4-Amino-6-[4-(4-fluorophenyl)piperazin-1-yl]-1,3,5-triazin-2-yl}methylthio]-N-(1H-benzo[d]imidazol-2(3H)-ylidene)-4-chloro-5-methylbenzenesulfonamide], the IC50 in assay [1] (Homo sapiens, MCF7, 72 h) is 17 ± 0.5 µM; in assay [2] it was 35 ± 1 µM; in assay [3], 7 to 19 µM; in assay [4] (Homo sapiens, HeLa), 17 ± 1 µM; in assay [5] (Homo sapiens, HCT-116, 72 h) it was 16 ± 0.5 µM.

Consider `Cc1cc(S(=O)(=O)N=c2[nH]c3ccc(F)cc3[nH]2)c(SCc2nc(N)nc(N3CCc4ccccc43)n2)cc1Cl` [Compound 34, 2-{[4-Amino-6-(indolin-1-yl)-1,3,5-triazin-2-yl]metylthio}-4-chloro-N-(5-fluoro-1H-benzo[d]imidazol-2(3H)-ylidene)-5-methylbenzenesulfonamide], for which the half-inhibitory concentration (IC50) is 25 ± 1 µM in assay [1] (Homo sapiens, MCF7, 72 h); 41 ± 1 µM in assay [2]; 17 to 30 µM in assay [3]; 30 ± 1 µM in assay [4] (Homo sapiens, HeLa); 17 ± 1 µM in assay [5] (Homo sapiens, HCT-116, 72 h).

Turning to `Cc1cc(S(=O)(=O)N=c2[nH]c3ccc(Cl)cc3[nH]2)c(SCc2nc(N)nc(Nc3ccccc3)n2)cc1Cl` [Compound 42, 2-{[4-Amino-6-(phenylamino)-1,3,5-triazin-2-yl]methylthio}-4-chloro-N-(5-chloro-1H-benzo[d]imidazol-2(3H)-ylidene)-5-methylbenzenesulfonamide], the 50% inhibitory concentration (IC50) in assay [1] (Homo sapiens, MCF7, 72 h) is 23 ± 1 µM; in assay [2] it was 37 ± 1 µM; in assay [3] it was 17 to 30 µM; in assay [4] (Homo sapiens, HeLa) it was 24 ± 1 µM; in assay [5] (Homo sapiens, HCT-116, 72 h) it was 18 ± 1 µM.

On to `Cc1cc(S(=O)(=O)N=c2[nH]c3ccc(F)cc3[nH]2)c(SCc2nc(N)nc(N(C)c3ccc(Cl)cc3)n2)cc1Cl` [Compound 36, 2-[{4-Amino-6-[(4-chlorophenyl)(methyl)amino]-1,3,5-triazin-2-yl}metylthio]-4-chloro-N-(5-fluoro-1H-benzo[d]imidazol-2(3H)-ylidene)-5-methylbenzenesulfonamide], for which the half-inhibitory concentration (IC50) in assay [1] (Homo sapiens, MCF7, 72 h) stood at 37 ± 2 µM; in assay [2] it was 49 ± 1 µM; in assay [4] (Homo sapiens, HeLa), 29 ± 1 µM; in assay [5] (Homo sapiens, HCT-116, 72 h), 18 ± 0.5 µM.

Turning to `Cc1cc(S(=O)(=O)N=c2[nH]c3ccccc3[nH]2)c(SCc2nc(N)nc(N3CCN(c4ccccc4)CC3)n2)cc1Cl` [Compound 19, 2-{[4-Amino-6-(4-phenylpiperazin-1-yl)-1,3,5-triazin-2-yl]methylthio}-N-(1H-benzo[d]imidazol-2(3H)-ylidene)-4-chloro-5-methylbenzenesulfonamide], the half-maximal inhibitory concentration (IC50) in assay [1] (Homo sapiens, MCF7, 72 h) was 19 ± 1 µM; in assay [2], 31 ± 1 µM; in assay [3], 7 to 19 µM; in assay [4] (Homo sapiens, HeLa), 18 ± 1 µM; in assay [5] (Homo sapiens, HCT-116, 72 h), 15 ± 1 µM.

Regarding `Cc1cc(S(=O)(=O)N=c2[nH]c3ccccc3[nH]2)c(SCc2nc(N)nc(N3CCCc4ccccc43)n2)cc1Cl` [Compound 10, 2-{[4-Amino-6-(3,4-dihydroquinolin-1(2H)-yl)-1,3,5-triazin-2-yl]methylthio}-N-(1H-benzo[d]imidazol-2(3H)-ylidene)-4-chloro-5-methylbenzenesulfonamide], the concentration for half-maximal inhibition (IC50) in assay [1] (Homo sapiens, MCF7, 72 h) is 25 ± 1 µM; in assay [2], 45 ± 2 µM; in assay [4] (Homo sapiens, HeLa), 30 ± 1 µM; in assay [5] (Homo sapiens, HCT-116, 72 h), 32 ± 3 µM.

`CC1=NN(c2nc(N)nc(CSc3cc(Cl)c(C)cc3S(=O)(=O)N=c3[nH]c4ccc(Cl)cc4[nH]3)n2)C(C)(C)C1` [Compound 41, 2-{[4-Amino-6-(3,5,5-trimethyl-4,5-dihydro-1H-pyrazol-1-yl)-1,3,5-triazin-2-yl]metylthio}-4-chloro-N-(5-chloro-1H-benzo[d]imidazol-2(3H)-ylidene)-5-methylbenzenesulfonamide]: the half-maximal inhibitory concentration (IC50) in assay [1] (Homo sapiens, MCF7, 72 h) was 38 ± 2 µM; in assay [2], 49 ± 1 µM; in assay [4] (Homo sapiens, HeLa) it was 30 ± 1 µM; in assay [5] (Homo sapiens, HCT-116, 72 h), 25 ± 1 µM.

`Cc1cc(S(=O)(=O)N=c2[nH]c3ccccc3[nH]2)c(SCc2nc(N)nc(N3CCN(c4ccccc4F)CC3)n2)cc1Cl` [Compound 21, 2-[{4-Amino-6-[4-(2-fluorophenyl)piperazin-1-yl]-1,3,5-triazin-2-yl}metylthio]-N-(1H-benzo[d]imidazol-2(3H)-ylidene)-4-chloro-5-methylbenzenesulfonamide]: the IC50 in assay [1] (Homo sapiens, MCF7, 72 h) was found to be 24 ± 1 µM; in assay [2] it was 32 ± 1 µM; in assay [4] (Homo sapiens, HeLa) it was 17 ± 0.5 µM; in assay [5] (Homo sapiens, HCT-116, 72 h) it was 15 ± 1 µM.
